Data: patent US20060128792A1, “Deguelin as a chemopreventive agent for lung cancer” (priority 2002, published 2006)
Values joined by “and” are separate entries in the source; they are usually repeats but may differ in a detail not shown here. Equal entries are not always repeated.

Experiments:
Assay in all cases: MTT assay, growth inhibition by deguelin or deguelin derivatives
Format in all cases: cell-based
Details in all cases: 3 days
[1] = tested on: H1299
[2] = tested on: H596
[3] = tested on: H460
[4] = tested on: H358
[5] = tested on: A549
[6] = tested on: H322

**Q.** Which results are given for `C=C(C)[C@H]1Cc2c(ccc3c(=O)c4c(oc23)COc2cc(OC)c(OC)cc2-4)O1` [6a,2a-dehydrorotenone]?
**A.** % control ([1]; H1299, 0.01 μM): 0.99%; MTT assay reading, Average ([1]; H1299, 0.01 μM): 1.5514; MTT assay reading, individual replicate ([1]; H1299, 0.01 μM): 1.562 and 1.561 and 1.559 and 1.63 and 1.515 and 1.517 and 1.516; % control ([1]; H1299, 0.1 μM): 0.89%; MTT assay reading, Average ([1]; H1299, 0.1 μM): 1.3907; MTT assay reading, individual replicate ([1]; H1299, 0.1 μM): 1.39 and 1.308 and 1.385 and 1.539 and 1.281 and 1.351 and 1.481; % control ([1]; H1299, 0.5 μM): 0.95%; MTT assay reading, Average ([1]; H1299, 0.5 μM): 1.4937; MTT assay reading, individual replicate ([1]; H1299, 0.5 μM): 1.544 and 1.561 and 1.338 and 1.502 and 1.595 and 1.413 and 1.503; % control ([1]; H1299, 1 μM): 0.89%; MTT assay reading, Average ([1]; H1299, 1 μM): 1.3961; MTT assay reading, individual replicate ([1]; H1299, 1 μM): 1.452 and 1.321 and 1.233 and 1.57 and 1.421 and 1.33 and 1.446; MTT assay reading, Average ([2]; H596, 0.01 μM): 1.6089; MTT assay reading, individual replicate ([2]; H596, 0.01 μM): 1.581 and 1.597 and 1.651 and 1.605 and 1.631 and 1.617 and 1.58; MTT assay reading, Average ([2]; H596, 0.1 μM): 1.399; MTT assay reading, individual replicate ([2]; H596, 0.1 μM): 1.347 and 1.381 and 1.333 and 1.513 and 1.417 and 1.34 and 1.462; MTT assay reading, Average ([2]; H596, 0.5 μM): 1.4016; MTT assay reading, individual replicate ([2]; H596, 0.5 μM): 1.343 and 1.467 and 1.312 and 1.463 and 1.351 and 1.399 and 1.476; MTT assay reading, Average ([2]; H596, 1 μM): 1.3214; MTT assay reading, individual replicate ([2]; H596, 1 μM): 1.234 and 1.257 and 1.341 and 1.494 and 1.326 and 1.319 and 1.279; % control ([3]; H460, 0.01 μM): 0.96%; MTT assay reading, Average ([3]; H460, 0.01 μM): 1.6774; MTT assay reading, individual replicate ([3]; H460, 0.01 μM): 1.625 and 1.563 and 1.731 and 1.89 and 1.443 and 1.675 and 1.815; % control ([3]; H460, 0.1 μM): 0.78%; MTT assay reading, Average ([3]; H460, 0.1 μM): 1.3666; MTT assay reading, individual replicate ([3]; H460, 0.1 μM): 1.314 (2×) and 1.333 and 1.204 and 1.501 and 1.379 and 1.521; % control ([3]; H460, 0.5 μM): 0.85%; MTT assay reading, Average ([3]; H460, 0.5 μM): 1.49; MTT assay reading, individual replicate ([3]; H460, 0.5 μM): 1.31 and 1.421 and 1.538 and 1.504 and 1.55 and 1.534 and 1.573; % control ([3]; H460, 1 μM): 0.79%; MTT assay reading, Average ([3]; H460, 1 μM): 1.382; MTT assay reading, individual replicate ([3]; H460, 1 μM): 1.253 and 1.353 and 1.351 and 1.347 and 1.429 and 1.319 and 1.622; MTT assay reading, Average ([4]; H358, 0.01 μM): 0.8861; MTT assay reading, individual replicate ([4]; H358, 0.01 μM): 0.784 and 0.734 and 0.786 and 0.686 and 0.95 and 1.192 and 1.071; MTT assay reading, Average ([4]; H358, 0.1 μM): 0.7511; MTT assay reading, individual replicate ([4]; H358, 0.1 μM): 0.602 and 0.652 and 0.603 and 0.672 and 0.792 and 0.778 and 1.159; MTT assay reading, Average ([4]; H358, 0.5 μM): 0.6756; MTT assay reading, individual replicate ([4]; H358, 0.5 μM): 0.533 and 0.604 and 0.6 and 0.736 and 0.633 and 0.734 and 0.889; MTT assay reading, Average ([4]; H358, 1 μM): 0.684; MTT assay reading, individual replicate ([4]; H358, 1 μM): 0.686 and 0.624 and 0.639 and 0.64 and 0.667 and 0.752 and 0.78; MTT assay reading, Average ([5]; A549, 0.01 μM): 1.7067; MTT assay reading, individual replicate ([5]; A549, 0.01 μM): 1.69 (2×) and 1.705 and 1.541 and 1.829 and 1.786 and 1.706; MTT assay reading, Average ([5]; A549, 0.1 μM): 1.4161; MTT assay reading, individual replicate ([5]; A549, 0.1 μM): 0.691 and 1.805 and 1.719 and 1.454 and 1.375 (2×) and 1.494; MTT assay reading, Average ([5]; A549, 0.5 μM): 1.4871; MTT assay reading, individual replicate ([5]; A549, 0.5 μM): 1.531 and 1.925 and 1.594 and 1.387 and 1.359 and 1.356 and 1.258; MTT assay reading, Average ([5]; A549, 1 μM): 1.4281; MTT assay reading, individual replicate ([5]; A549, 1 μM): 1.544 and 1.458 and 1.375 and 1.486 and 1.428 and 1.464 and 1.242; MTT assay reading, Average ([6]; H322, 0.01 μM): 0.969; MTT assay reading, individual replicate ([6]; H322, 0.01 μM): 0.795 and 0.799 and 0.893 and 0.989 and 1.014 and 1.101 and 1.192; MTT assay reading, Average ([6]; H322, 0.1 μM): 0.8656; MTT assay reading, individual replicate ([6]; H322, 0.1 μM): 0.865 and 0.771 and 0.799 and 0.872 and 0.866 and 0.909 and 0.977; MTT assay reading, Average ([6]; H322, 0.5 μM): 0.828; MTT assay reading, individual replicate ([6]; H322, 0.5 μM): 0.736 and 0.809 and 0.833 and 0.746 and 0.89 and 0.958 and 0.824; MTT assay reading, Average ([6]; H322, 1 μM): 0.7213; MTT assay reading, individual replicate ([6]; H322, 1 μM): 0.677 and 0.658 and 0.692 and 0.681 and 0.68 and 0.859 and 0.802
